Patent US20240238244A1, “USE OF A COMPOUND SUCH AS […] TREATING A VIRAL PULMONARY DISEASE” (4LIVING BIOTECH, priority 2021, published 2024)
Several values for one entry are separate records, joined by “and”; a condition that tells them apart may be missing. Identical values can stand only once. Like-named read-outs stand apart in the source and are kept apart here.

What was measured:
[1] = tested on: H3N2 influenza A virus strain Scotland/20/74; settings: day 7; for Percentage of fibrocytes recruited in the lung: Infected group 28.05±26.78%, Not-infected 7.58±1.70%
Description: Treatments were administered twice a day subcutaneously (SC) in mice from day 1 to day 6 by grasping the skin along back of mice. The needle was inserted at base of skin old between thumb and finger and solution was injected. Plerixafor® was administered (100 μl) twice a day to group “Infected+Plerixafor 1 mg/kg”, “Infected+Plerixafor 3 mg/kg”, and “Infected+Plerixafor 10 mg/kg”. Thus, mice received daily 1, 3 and 10 mg/kg for 7 days for group “Infected+Plerixafor 1 mg/kg”, “Infected+Plerixafor 3 mg/kg”, and “Infected+Plerixafor 10 mg/kg” respectively. Group “Infected” received water twice a day (100 μl).
The percentage of general fibrocytes was evaluated in lung by flow cytometry analysis. The proportion of fibrocytes was assessed using a combination of Antibody/Fluorochrome, i.e. CD45+, FSP1+, and their viability was assessed using the Live Dead cell viability assay. For each tested condition, a general gating strategy was followed to identify the different sub-populations. First, cells of interest were selected according to granulometry and size events via the FSC-H (Forward Scatter Height) and SSC-H (Side Scatter Height) parameters. Then, on the selected cells, fibrocytes were identified as CD45+/FSP1+ cells.
The percentage of fibrocytes recruited in the lung was evaluated at day 7 for 4 mice per group (3 for non-infected group).

[2] = tested on: H3N2 influenza A virus strain Scotland/20/74
[3] = tested on: H3N2 influenza A virus strain Scotland/20/74; settings: day 7; for Mean necrosis/cell death score: Influenza group 0.90; for Mean edema/HM/congestion score: Influenza group 1.50; for Mean inflammation score: Influenza group 1.90; for Mean total score according to Meyerholz and Beck: Influenza group 4.50
[4] = tested on: H3N2 influenza A virus strain Scotland/20/74; settings: day 7; for Mean IL-17 levels in lung homogenates: Influenza group 575.58, non-infected 874.47; for Mean IL-1β levels in lung homogenates: Influenza group 3502.64, non-infected 1347.22; for Mean TNFα levels in lung homogenates: Influenza group 11038.49, non-infected 11879.58; for Mean IL-6 levels in lung homogenates: Influenza group 15055.10, non-infected 2412.49; for Mean C5a levels in lung homogenates: Influenza group 3758066.67, non-infected 2540416.67; for Mean CRP levels in lung homogenates: Influenza group 9243070.24, non-infected 2718616.67
[5] = Plerixafor 2.5 mg/kg daily SC (group 3M)
[6] = Plerixafor 5 mg/kg daily SC (group 4M)
[7] = Plerixafor 10 mg/kg daily SC (group 5M)
[8] = Plerixafor 20 mg/kg daily SC (group 6M)
[9] = Plerixafor 20 mg/kg daily SC (group 6M), p<0.01
[10] = Plerixafor at 2, 5, 5, 10 and 20 mg/kg
[11] = Plerixafor at 2, 5, 5 and 10 mg/kg

c1cc(CN2CCCNCCNCCCNCC2)ccc1CN1CCCNCCNCCCNCC1 [Plerixafor, 1,1′-[1,4-phenylene-bis(methylene)]-bis-1,4,8,11-tetraazacyclotetradecane]
Percentage of fibrocytes recruited in the lung ([1]; Infected+Plerixafor 1 mg/kg daily SC): 19.77±19.93% | Percentage of fibrocytes recruited in the lung ([1]; Infected+Plerixafor 3 mg/kg daily SC): 12.90±5.44% | Percentage of fibrocytes recruited in the lung ([1]; Infected+Plerixafor 10 mg/kg daily SC): 23.86±18.39% | Effect on the recruitment of fibrocytes in the lung ([1]; whatever the Plerixafor dosage tested (1, 3, 10 mg/kg daily), no dose-effect): does not affect significantly | BW (body weight) 7 days after the infection ([2]; Plerixafor 20 mg/kg daily (10 mg/kg SC twice a day, day 1 to 6), day 7, influenza group 94±5%, non-infected 103±4%, p<0.05): 97±5% | Modulation of BW loss ([2]; Plerixafor at doses inferior or equal to 10 mg/kg daily, SC twice a day, day 1 to 6): did not modulate BW loss | Mean necrosis/cell death score [3, 5]: 0.50 | Mean edema/HM/congestion score [3, 5]: 0.70 | Mean inflammation score [3, 5]: 1.40 | Mean total score according to Meyerholz and Beck [3, 5]: 2.70 | Mean necrosis/cell death score [3, 6]: 0.80 | Mean edema/HM/congestion score [3, 6]: 0.90 | Mean inflammation score [3, 6]: 2.00 | Mean total score according to Meyerholz and Beck [3, 6]: 4.00 | Mean necrosis/cell death score [3, 7]: 0.50 | Mean edema/HM/congestion score [3, 7]: 0.50 | Mean inflammation score [3, 7]: 1.70 | Mean total score according to Meyerholz and Beck [3, 7]: 2.90 | Mean necrosis/cell death score [3, 8]: 0.40±0.70 and 0.40 | Mean edema/HM/congestion score [3, 8]: 0.60±0.52 and 0.60 | Mean inflammation score [3, 8]: 1.60±1.17 and 1.60 | Mean total score according to Meyerholz and Beck [3, 8]: 2.80±2.35 and 2.80 | Severity, distribution and incidence of pulmonary lesions in comparison to influenza treated mice ([3]; groups 3M, 4M, 5M and 6M (Plerixafor 2.5, 5, 10, 20 mg/kg daily SC)): slightly lower | Mean IL-17 levels in lung homogenates [4, 5]: 748.08 pg/ml/g of tissue | Mean IL-1β levels in lung homogenates [4, 5]: 4317.27 pg/ml/g of tissue | Mean TNFα levels in lung homogenates [4, 5]: 8983.01 pg/ml/g of tissue | Mean IL-6 levels in lung homogenates [4, 5]: 11166.93 pg/ml/g of tissue | Mean C5a levels in lung homogenates [4, 5]: 3699919.44 pg/ml/g of tissue | Mean CRP levels in lung homogenates [4, 5]: 9241738.89 pg/ml/g of tissue | Mean IL-17 levels in lung homogenates [4, 6]: 663.57 pg/ml/g of tissue | Mean IL-1β levels in lung homogenates [4, 6]: 2534.11 pg/ml/g of tissue | Mean TNFα levels in lung homogenates [4, 6]: 9307.38 pg/ml/g of tissue | Mean IL-6 levels in lung homogenates [4, 6]: 11059.46 pg/ml/g of tissue | Mean C5a levels in lung homogenates [4, 6]: 3440259.52 pg/ml/g of tissue | Mean CRP levels in lung homogenates [4, 6]: 7792352.38 pg/ml/g of tissue | Mean IL-17 levels in lung homogenates [4, 7]: 799.98 pg/ml/g of tissue | Mean IL-1β levels in lung homogenates [4, 7]: 3319.66 pg/ml/g of tissue | Mean TNFα levels in lung homogenates [4, 7]: 11138.01 pg/ml/g of tissue | Mean IL-6 levels in lung homogenates [4, 7]: 13927.98 pg/ml/g of tissue | Mean C5a levels in lung homogenates [4, 7]: 3519038.68 pg/ml/g of tissue | Mean CRP levels in lung homogenates [4, 7]: 8406400.43 pg/ml/g of tissue | Mean IL-17 levels in lung homogenates [4, 8]: 603.22 pg/ml/g of tissue | Mean IL-1β levels in lung homogenates [4, 8]: 2805.78 pg/ml/g of tissue | Mean TNFα levels in lung homogenates [4, 8]: 6224.51±3014.54 pg/ml/g of tissue and 6224.51 pg/ml/g of tissue | Mean IL-6 levels in lung homogenates ([4]; Plerixafor 20 mg/kg daily SC (group 6M), p<0.05): 5408.82±3539.57 pg/ml/g of tissue and 5408.82 * pg/ml/g of tissue | Mean C5a levels in lung homogenates [4, 9]: 2220172.76±972810.94 pg/ml/g of tissue and 2220172.76 pg/ml/g of tissue | Mean CRP levels in lung homogenates [4, 9]: 4488307.08±2059120.87 pg/ml/g of tissue and 4488307.08 pg/ml/g of tissue | Modulation of IL-1β levels [4, 10]: did not significantly modulate | Modulation of IL-17 levels [4, 10]: did not significantly modulate | Modulation of C5a levels [4, 11]: did not significantly modulate | Modulation of IL-6 levels in comparison to Influenza group [4, 11]: did not significantly modulate | Modulation of TNFα levels [4, 11]: did not significantly modulate | Modulation of CRP levels ([4]; Plerixafor at 2.5, 5 and 10 mg/kg): did not significantly modulate
